Source: the supplement of paper PMC9013687
± gives the standard deviation of the averaged measurements.

Tests used:
Danio rerio embryo [1] = test: EC20 Yolk sac size_Increase; higher = less potent; conditions: exposure time: 4 dpf
Experimental: (§1)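 Zebrafish embryos (UFZ-OBI strain) were exposed from 2 hpf for 48 h (2 dpf) or 96 h (4 dpf) at 28 °C; spontaneous tail coiling was scored at 25 hpf. Morphological features from automated image analysis (FishInspector), heart rate and locomotor response were fitted with drc models. Quantal endpoints were dichotomised at 2.5 SD from controls and fitted with a log-logistic model; heart rate, pigmentation and STC were normalised to the replicate control mean. Betamethasone was tested as betamethasone dipropionate, diflorasone as diflorasone diacetate.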

Danio rerio embryo [2] = test: EC20 Body length_Decrease; higher = less potent
Experimental: as §1

Danio rerio embryo [3] = test: EC20 Any effect; higher = less potent
Experimental: as §1

Danio rerio embryo [4] = test: EC10 Pericard size_Increase; higher = less potent; conditions: exposure time: 4 dpf
Experimental: as §1

Danio rerio embryo [5] = test: EC20 LMR dark; higher = less potent; conditions: exposure time: 4 dpf
Experimental: as §1

Danio rerio embryo [6] = test: EC50 Otolith-eye distance_Decrease; conditions: exposure time: 4 dpf
Experimental: as §1

Danio rerio embryo [7] = test: EC50 Curvature_Increase
Experimental: as §1

Danio rerio embryo [8] = test: EC10 LMR dark; higher = less potent; conditions: exposure time: 4 dpf
Experimental: as §1

Danio rerio embryo [9] = test: EC20 Pericard size_Increase; higher = less potent; conditions: exposure time: 4 dpf
Experimental: as §1

Danio rerio embryo [10] = test: EC10 Otolith-eye distance_Decrease; higher = less potent; conditions: exposure time: 4 dpf
Experimental: as §1

Danio rerio embryo [11] = test: EC10 Curvature_Increase; higher = less potent
Experimental: as §1

Danio rerio embryo [12] = tested on: Danio rerio embryo
Experimental: as §1

Danio rerio embryo [13] = test: EC20 Eye-jaw distance_Decrease; higher = less potent; conditions: exposure time: 4 dpf
Experimental: as §1

Danio rerio embryo [14] = test: EC20 Bladder size_Decrease; higher = less potent; conditions: exposure time: 4 dpf
Experimental: as §1

Danio rerio embryo [15] = test: EC20 Otolith-eye distance_Decrease; higher = less potent; conditions: exposure time: 4 dpf
Experimental: as §1

Danio rerio embryo [16] = test: EC10 Bladder size_Decrease; higher = less potent; conditions: exposure time: 4 dpf
Experimental: as §1

Danio rerio embryo [17] = test: EC20 Curvature_Increase; higher = less potent
Experimental: as §1

Danio rerio embryo [18] = test: EC50 Pericard size_Increase; conditions: exposure time: 4 dpf
Experimental: as §1

Danio rerio embryo [19] = test: EC50 Body length_Decrease
Experimental: as §1

Danio rerio embryo [20] = test: EC50 Yolk sac size_Increase; conditions: exposure time: 4 dpf
Experimental: as §1

Danio rerio embryo [21] = test: EC10 Body length_Decrease; higher = less potent
Experimental: as §1

Danio rerio embryo [22] = conditions: exposure time: 4 dpf
Experimental: as §1

Danio rerio embryo [23] = test: EC10 Any effect; higher = less potent
Experimental: as §1

Danio rerio embryo [24] = test: spontaneous tail coiling frequency (coils/min/embryo); higher = more spontaneous movement; conditions: 25 hpf
Experimental: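 Spontaneous tail coilings of zebrafish embryos exposed from 2 hpf were recorded at 24-25 hpf in 1-min videos and detected by a KNIME workflow from grey-value variance. Betamethasone was tested as the dipropionate, diflorasone as the diacetate.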

Danio rerio embryo [25] = test: EC10 Yolk sac size_Increase; higher = less potent; conditions: exposure time: 4 dpf
Experimental: as §1

Danio rerio embryo [26] = test: EC50 Eye-jaw distance_Decrease; conditions: exposure time: 4 dpf
Experimental: as §1

Danio rerio embryo [27] = test: EC50 Bladder size_Decrease; conditions: exposure time: 4 dpf
Experimental: as §1

Danio rerio embryo [28] = test: EC10 Eye-jaw distance_Decrease; higher = less potent; conditions: exposure time: 4 dpf
Experimental: as §1

CCO/N=C(\CC)C1=C(O)CC(c2c(C)cc(C)cc2C)CC1=O (stereo not given) [Tralkoxydim]
EC20 Yolk sac size Increase (Danio rerio embryo [1]): 45.9 µM | EC20 Body length Decrease (Danio rerio embryo [2]; exposure time: 2 dpf): 45.5 µM | EC20 Body length Decrease (Danio rerio embryo [2]; exposure time: 4 dpf): 91.9 µM | EC20 Any effect (Danio rerio embryo [3]; exposure time: 2 dpf): 47.2 µM | EC20 Any effect (Danio rerio embryo [3]; exposure time: 4 dpf): 52.7 µM | EC10 Pericard size Increase (Danio rerio embryo [4]): 103 µM | EC20 LMR dark (Danio rerio embryo [5]): 1.56 µM | EC50 Otolith-eye distance Decrease (Danio rerio embryo [6]): 116 µM | EC50 Curvature Increase (Danio rerio embryo [7]; exposure time: 2 dpf): 98.7 µM | EC50 Curvature Increase (Danio rerio embryo [7]; exposure time: 4 dpf): 101 µM | EC10 LMR dark (Danio rerio embryo [8]): 0.149 µM | EC20 Pericard size Increase (Danio rerio embryo [9]): 104 µM | EC10 Otolith-eye distance Decrease (Danio rerio embryo [10]): 77.1 µM | EC10 Curvature Increase (Danio rerio embryo [11]; exposure time: 2 dpf): 77.4 µM | EC10 Curvature Increase (Danio rerio embryo [11]; exposure time: 4 dpf): 85.2 µM | EC50 Any effect (Danio rerio embryo [12]; exposure time: 2 dpf): 66 µM | EC50 Otolith (Danio rerio embryo [12]; exposure time: 2 dpf): 241 µM | EC50 Any effect (Danio rerio embryo [12]; exposure time: 4 dpf): 68.9 µM | EC50 STC decrease (Danio rerio embryo [12]; exposure time: 25 h): 171 µM | EC20 Eye-jaw distance Decrease (Danio rerio embryo [13]): 89 µM | EC20 Bladder size Decrease (Danio rerio embryo [14]): 51.9 µM | EC20 Otolith-eye distance Decrease (Danio rerio embryo [15]): 89.6 µM | EC10 Bladder size Decrease (Danio rerio embryo [16]): 47.1 µM | EC20 Curvature Increase (Danio rerio embryo [17]; exposure time: 2 dpf): 84.7 µM | EC20 Curvature Increase (Danio rerio embryo [17]; exposure time: 4 dpf): 90.7 µM | EC50 Pericard size Increase (Danio rerio embryo [18]): 106 µM | EC50 Body length Decrease (Danio rerio embryo [19]; exposure time: 2 dpf): 66.2 µM | EC50 Body length Decrease (Danio rerio embryo [19]; exposure time: 4 dpf): 103 µM | EC50 Yolk sac size Increase (Danio rerio embryo [20]): 65.3 µM | EC10 Body length Decrease (Danio rerio embryo [21]; exposure time: 2 dpf): 36.6 µM | EC10 Body length Decrease (Danio rerio embryo [21]; exposure time: 4 dpf): 85.8 µM | EC50 LMR dark (Danio rerio embryo [22]): 85.8 µM | EC10 Any effect (Danio rerio embryo [23]; exposure time: 2 dpf): 38.8 µM | EC10 Any effect (Danio rerio embryo [23]; exposure time: 4 dpf): 45.1 µM | spontaneous tail coiling frequency (Danio rerio embryo [24]; 30.4 µM): 2.43 ± 0.84 | spontaneous tail coiling frequency (Danio rerio embryo [24]; 60.7 µM): 2.33 | spontaneous tail coiling frequency (Danio rerio embryo [24]; 91.1 µM): 4.43 ± 1.7 | spontaneous tail coiling frequency (Danio rerio embryo [24]; 121.4 µM): 3.17 ± 1.6 | spontaneous tail coiling frequency (Danio rerio embryo [24]; 151.8 µM): 1.92 ± 2.8 | spontaneous tail coiling frequency (Danio rerio embryo [24]; 197.3 µM): 0.957 ± 1.6 | spontaneous tail coiling frequency (Danio rerio embryo [24]; 258 µM): 0 | EC10 Yolk sac size Increase (Danio rerio embryo [25]): 37.4 µM | EC50 Eye-jaw distance Decrease (Danio rerio embryo [26]): 97.9 µM | EC50 Bladder size Decrease (Danio rerio embryo [27]): 61.3 µM | EC10 Eye-jaw distance Decrease (Danio rerio embryo [28]): 84.3 µM
